Source: ChEMBL document CHEMBL4304788, “Treatment of Cancer and Alzheimer's Disease by PROTAC Degradation of EGFR” (ACS Med Chem Lett, 2019)

Molecular target: Protein cereblon/Epidermal growth factor receptor (Homo sapiens, UniProt P00533+Q96SW2, L858R/T790M)
Assay: Protac activity at native cereblon/EGFR T790M/L858R mutant (unknown origin) transfected in mouse Baf3 cells assessed as reduction in cell proliferation by MTS assay
Type: cell-based

Sequence of Protein cereblon/Epidermal growth factor receptor (P00533 25-1210 T790M/L858R limits assumed, stated change not applied): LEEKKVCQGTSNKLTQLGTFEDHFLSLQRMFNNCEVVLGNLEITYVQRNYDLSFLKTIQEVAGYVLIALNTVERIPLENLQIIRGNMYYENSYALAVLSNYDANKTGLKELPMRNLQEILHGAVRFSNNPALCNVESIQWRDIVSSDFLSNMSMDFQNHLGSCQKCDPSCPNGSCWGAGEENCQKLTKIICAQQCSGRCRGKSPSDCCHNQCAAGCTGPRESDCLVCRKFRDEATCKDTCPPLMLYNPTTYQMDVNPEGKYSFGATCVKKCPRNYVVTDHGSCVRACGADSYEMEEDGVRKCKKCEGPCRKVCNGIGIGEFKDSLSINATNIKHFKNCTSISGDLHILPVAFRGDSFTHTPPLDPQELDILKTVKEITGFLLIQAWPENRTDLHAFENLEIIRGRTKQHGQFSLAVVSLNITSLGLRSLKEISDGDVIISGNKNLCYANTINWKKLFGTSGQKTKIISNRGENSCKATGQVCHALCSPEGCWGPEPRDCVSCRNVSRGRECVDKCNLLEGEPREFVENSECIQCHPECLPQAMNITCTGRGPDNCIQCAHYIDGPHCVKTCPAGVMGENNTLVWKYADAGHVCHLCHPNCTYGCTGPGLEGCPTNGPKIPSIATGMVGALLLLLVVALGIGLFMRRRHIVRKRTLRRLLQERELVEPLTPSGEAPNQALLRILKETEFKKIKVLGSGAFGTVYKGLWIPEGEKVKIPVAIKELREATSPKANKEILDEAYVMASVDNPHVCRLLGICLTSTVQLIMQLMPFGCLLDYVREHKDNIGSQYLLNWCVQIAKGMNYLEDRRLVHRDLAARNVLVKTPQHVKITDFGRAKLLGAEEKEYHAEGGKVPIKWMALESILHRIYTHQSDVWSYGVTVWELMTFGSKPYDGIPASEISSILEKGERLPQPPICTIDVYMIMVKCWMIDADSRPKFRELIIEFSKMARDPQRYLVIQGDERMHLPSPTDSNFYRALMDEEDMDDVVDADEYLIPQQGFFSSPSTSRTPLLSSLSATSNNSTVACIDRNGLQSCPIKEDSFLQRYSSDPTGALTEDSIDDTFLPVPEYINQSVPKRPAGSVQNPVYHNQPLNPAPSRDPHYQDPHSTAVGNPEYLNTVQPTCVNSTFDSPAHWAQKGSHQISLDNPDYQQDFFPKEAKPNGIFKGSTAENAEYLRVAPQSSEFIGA
Sequence of Protein cereblon/Epidermal growth factor receptor (Q96SW2 whole entry, stated change not applied): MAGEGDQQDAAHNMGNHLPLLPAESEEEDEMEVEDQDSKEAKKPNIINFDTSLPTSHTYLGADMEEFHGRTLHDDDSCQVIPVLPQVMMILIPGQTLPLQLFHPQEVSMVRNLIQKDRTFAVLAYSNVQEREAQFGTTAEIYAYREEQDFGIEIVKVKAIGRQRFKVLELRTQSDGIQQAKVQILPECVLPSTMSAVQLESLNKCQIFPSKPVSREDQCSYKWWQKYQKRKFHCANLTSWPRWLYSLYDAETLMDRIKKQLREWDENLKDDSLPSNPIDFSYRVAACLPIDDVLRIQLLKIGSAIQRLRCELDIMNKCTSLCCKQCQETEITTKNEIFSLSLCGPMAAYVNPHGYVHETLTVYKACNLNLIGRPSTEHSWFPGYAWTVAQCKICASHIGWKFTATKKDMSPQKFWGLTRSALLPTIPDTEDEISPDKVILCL

| SMILES | EC50 [nM] |
| --- | --- |
| O=C1CCC(N2C(=O)c3cccc(NCCOCCOCCOCCOCCN4CCN(c5ccc(-c6ccc7c(c6)C(=O)N(C(C(=O)Nc6nccs6)c6ccccc6)C7)cc5)CC4)c3C2=O)C(=O)N1 (centres undefined) | < 500 |
| O=C1CCC(N2C(=O)c3cccc(NCCOCCOCCOCCN4CCN(c5ccc(-c6ccc7c(c6)C(=O)N(C(C(=O)Nc6nccs6)c6ccccc6)C7)cn5)CC4)c3C2=O)C(=O)N1 (centres undefined) | < 500 |
| O=C1CCC(N2C(=O)c3cccc(NCCOCCOCCOCCN4CCN(c5ccc(-c6ccc7c(c6)C(=O)N(C(C(=O)Nc6nccs6)c6ccccc6)C7)cc5)CC4)c3C2=O)C(=O)N1 (centres undefined) | < 500 |
| O=C1CCC(N2C(=O)c3cccc(NCCOCCOCCOCCC(=O)N4CCN(c5ccc(-c6ccc7c(c6)C(=O)N(C(C(=O)Nc6nccs6)c6ccccc6)C7)cc5)CC4)c3C2=O)C(=O)N1 (centres undefined) | < 500 |
